Measurements as given in PubChem BioAssay (NCI).
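96-well plates; 48 h exposure; 5 concentrations. Endpoints by linear interpolation between flanking doses. Not reached: highest tested concentration assigned. TGI: total growth inhibition.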

Legend:
Assay in all cases: inhibition of tumour cell growth, NCI panel, 48 h
SNB-75 CNS = system: SNB-75 CNS
EKVX NSCLC = system: EKVX NSCLC
PC-3 prostate = system: PC-3 prostate
NCI-H226 lung = system: NCI-H226 lung
NCI/ADR-RES ovarian = system: NCI/ADR-RES ovarian
SNB-19 CNS = system: SNB-19 CNS
SF-268 CNS = system: SF-268 CNS
OVCAR-8 ovarian = system: OVCAR-8 ovarian
U251 CNS = system: U251 CNS
OVCAR-4 ovarian = system: OVCAR-4 ovarian
NCI-H522 lung = system: NCI-H522 lung
SR leukemia = system: SR leukemia
SN12C renal = system: SN12C renal
KM12 colon = system: KM12 colon
MOLT-4 leukemia = system: MOLT-4 leukemia
HCC-2998 colon = system: HCC-2998 colon
UACC-257 melanoma = system: UACC-257 melanoma
SF-295 CNS = system: SF-295 CNS
NCI-H460 lung = system: NCI-H460 lung
MDA-MB-231 breast = system: MDA-MB-231 breast
MDA-MB-435 = system: MDA-MB-435
A498 renal = system: A498 renal
HCT-15 colon = system: HCT-15 colon
MALME-3M melanoma = system: MALME-3M melanoma
CCRF-CEM leukemia = system: CCRF-CEM leukemia
ACHN renal = system: ACHN renal
NCI-H23 lung = system: NCI-H23 lung
DU-145 prostate = system: DU-145 prostate
786-0 renal = system: 786-0 renal
HL-60(TB) leukemia = system: HL-60(TB) leukemia
MDA-N = system: MDA-N
HS 578T breast = system: HS 578T breast
HOP-62 NSCLC = system: HOP-62 NSCLC
LOX IMVI melanoma = system: LOX IMVI melanoma
A549 NSCLC = system: A549 NSCLC
SK-MEL-28 melanoma = system: SK-MEL-28 melanoma
K-562 leukemia = system: K-562 leukemia
OVCAR-3 ovarian = system: OVCAR-3 ovarian
RPMI-8226 leukemia = system: RPMI-8226 leukemia
HT29 colon = system: HT29 colon
HOP-92 NSCLC = system: HOP-92 NSCLC
T-47D breast = system: T-47D breast
UO-31 renal = system: UO-31 renal
RXF 393 renal = system: RXF 393 renal
UACC-62 melanoma = system: UACC-62 melanoma
CAKI-1 renal = system: CAKI-1 renal
IGROV1 ovarian = system: IGROV1 ovarian
MCF7 breast = system: MCF7 breast
HCT-116 colon = system: HCT-116 colon
BT-549 breast = system: BT-549 breast
COLO 205 colon = system: COLO 205 colon
TK-10 renal = system: TK-10 renal
OVCAR-5 ovarian = system: OVCAR-5 ovarian
SF-539 CNS = system: SF-539 CNS
SK-MEL-5 melanoma = system: SK-MEL-5 melanoma
M14 melanoma = system: M14 melanoma

`CC(=O)N/N=C1/NN(C(C)=O)C2(S1)C(=O)Nc1ccc(C)cc12` (stereo unspecified) gave a TGI (SNB-75 CNS) greater than 100 µM, a TGI (EKVX NSCLC) greater than 100 µM and a TGI (PC-3 prostate) greater than 100 µM. The TGI (NCI-H226 lung) was greater than 100 µM, the TGI (NCI/ADR-RES ovarian) was greater than 100 µM and the TGI (SNB-19 CNS) was greater than 100 µM. It also gave a TGI (SF-268 CNS) greater than 100 µM, a TGI (OVCAR-8 ovarian) greater than 100 µM and a TGI (U251 CNS) greater than 100 µM. The TGI (OVCAR-4 ovarian) was greater than 100 µM, the TGI (NCI-H522 lung) was greater than 100 µM and the TGI (SR leukemia) was greater than 100 µM. For the same molecule, the TGI (SN12C renal) was greater than 100 µM, the TGI (KM12 colon) was greater than 100 µM and the TGI (MOLT-4 leukemia) was greater than 100 µM. It also gave a TGI (HCC-2998 colon) greater than 100 µM, a TGI (UACC-257 melanoma) greater than 100 µM and a TGI (SF-295 CNS) greater than 100 µM. The TGI (NCI-H460 lung) was greater than 100 µM, the TGI (MDA-MB-231 breast) was greater than 100 µM and the TGI (MDA-MB-435) was greater than 100 µM. For the same molecule, the TGI (A498 renal) was greater than 100 µM, the TGI (HCT-15 colon) was greater than 100 µM and the TGI (MALME-3M melanoma) was greater than 100 µM. It also gave a TGI (CCRF-CEM leukemia) greater than 100 µM, a TGI (ACHN renal) greater than 100 µM and a TGI (NCI-H23 lung) greater than 100 µM. The TGI (DU-145 prostate) was greater than 100 µM, the TGI (786-0 renal) was greater than 100 µM and the TGI (HL-60(TB) leukemia) was greater than 100 µM. The TGI (MDA-N) was greater than 100 µM, the TGI (HS 578T breast) was greater than 100 µM and the TGI (HOP-62 NSCLC) was greater than 100 µM. For the same molecule, the TGI (LOX IMVI melanoma) was greater than 100 µM, the TGI (A549 NSCLC) was greater than 100 µM and the TGI (SK-MEL-28 melanoma) was greater than 100 µM. The TGI (K-562 leukemia) was greater than 100 µM, the TGI (OVCAR-3 ovarian) was greater than 100 µM and the TGI (RPMI-8226 leukemia) was greater than 100 µM. It also gave a TGI (HT29 colon) greater than 100 µM, a TGI (HOP-92 NSCLC) greater than 100 µM and a TGI (T-47D breast) of 70.9 µM. The TGI (UO-31 renal) was greater than 100 µM, the TGI (RXF 393 renal) was greater than 100 µM and the TGI (UACC-62 melanoma) was greater than 100 µM. It also gave a TGI (CAKI-1 renal) greater than 100 µM, a TGI (IGROV1 ovarian) greater than 100 µM and a TGI (MCF7 breast) greater than 100 µM. It also gave a TGI (HCT-116 colon) greater than 100 µM, a TGI (BT-549 breast) greater than 100 µM and a TGI (COLO 205 colon) greater than 100 µM. For the same molecule, the TGI (TK-10 renal) was greater than 100 µM, the TGI (OVCAR-5 ovarian) was greater than 100 µM and the TGI (SF-539 CNS) was greater than 100 µM. It also gave a TGI (SK-MEL-5 melanoma) greater than 100 µM and a TGI (M14 melanoma) greater than 100 µM.
